Measured values: ChEMBL document CHEMBL5370526, “Recent advances in EZH2-based dual inhibitors in the treatment of cancers” (Eur J Med Chem, 2023)
Blank lines part the entries; values can stand above or below the molecule they belong to.

Experiments:
[1] = test system: HCT-116; test: Cytotoxicity against human HCT-116 cells assessed as reduction in cell viability measured after 72 hrs by MTT assay; format: functional, cell-based; conditions: HCT-116, 72 h
[2] = test system: KARPAS-422; test: Growth inhibition of human KARPAS-422 cells assessed as reduction in cell viability measured after 72 hrs by MTT assay; format: functional
[3] = test system: KARPAS-422; test: Antitumor activity against human KARPAS-422 cells xenografted in nude mouse assessed as reduction in tumor growth at 100 mg/kg, po administered once daily for 14 consecutive days relative to control; format: functional; conditions: read-out: TGI
[4] = test system: ASPC1; test: Antiproliferative activity against human ASPC1 cells harboring KRAS G12D mutant assessed as reduction in cell growth measured after 72 hrs by MTT assay; format: functional, cell-based; conditions: ASPC1, 72 h
[5] = test system: MV4-11; test: Growth inhibition of human MV4-11 cells assessed as reduction in cell viability measured after 72 hrs by MTT assay; format: functional
[6] = test system: RS4-11; test: Growth inhibition of human RS4-11 cells assessed as reduction in cell viability measured after 72 hrs by MTT assay; format: functional
[7] = test system: G-401; test: Growth inhibition of human G-401 cells assessed as reduction in cell viability measured after 72 hrs by MTT assay; format: functional
[8] = test system: NCI-N87; test: Growth inhibition of human NCI-N87 cells assessed as reduction in cell viability measured after 72 hrs by MTT assay; format: functional
[9] = biological target: Histone-lysine N-methyltransferase EZH2 (Homo sapiens, UniProt Q15910, Y641F); test: Inhibition of N-terminal FLAG-tagged recombinant full-length human EZH2 Y641F mutant in PRC2 complex expressed in baculovirus infected Sf9 cells using H3K27me0 biotin/SAM as substrate preincubated for 10 mins followed by substrate addition measured after 4 hrs by HTRF assay
Sequence of Histone-lysine N-methyltransferase EZH2 (Homo sapiens, UniProt Q15910, Y641F) (Q15910 whole entry Y641F): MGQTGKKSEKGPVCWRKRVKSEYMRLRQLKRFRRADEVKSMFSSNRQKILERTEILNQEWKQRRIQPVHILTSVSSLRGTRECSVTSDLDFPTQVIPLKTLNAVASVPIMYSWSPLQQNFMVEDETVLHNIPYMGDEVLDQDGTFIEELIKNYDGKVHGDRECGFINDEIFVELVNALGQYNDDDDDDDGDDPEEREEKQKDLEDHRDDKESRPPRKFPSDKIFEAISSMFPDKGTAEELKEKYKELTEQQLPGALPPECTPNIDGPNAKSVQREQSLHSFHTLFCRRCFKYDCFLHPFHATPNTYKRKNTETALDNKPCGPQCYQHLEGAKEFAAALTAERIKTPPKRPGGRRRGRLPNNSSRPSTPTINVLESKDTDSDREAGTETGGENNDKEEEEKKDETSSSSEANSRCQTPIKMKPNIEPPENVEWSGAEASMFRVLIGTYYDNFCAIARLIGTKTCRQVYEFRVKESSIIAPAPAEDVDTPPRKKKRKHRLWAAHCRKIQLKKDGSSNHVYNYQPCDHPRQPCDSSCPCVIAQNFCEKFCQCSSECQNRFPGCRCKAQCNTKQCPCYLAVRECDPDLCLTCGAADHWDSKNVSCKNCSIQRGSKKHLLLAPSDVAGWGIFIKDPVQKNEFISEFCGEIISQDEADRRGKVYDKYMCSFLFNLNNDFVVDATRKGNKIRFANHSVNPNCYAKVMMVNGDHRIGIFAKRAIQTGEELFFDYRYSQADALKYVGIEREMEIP

[10] = biological target: T1, Histone-lysine N-methyltransferase EZH2 (Homo sapiens, UniProt Q15910); test: Inhibition of EZH2 (unknown origin) using plate-coated histone as substrate at 5 uM incubated for 90 mins in presence of 5 uM SAM by AlphaScreen assay
T1 sequence (Q15910 whole entry): as the sequence (Q15910 whole entry Y641F) above, with F641Y counted along it

[11] = biological target: T1, Histone-lysine N-methyltransferase EZH2; test: Inhibition of EZH2 methyltransferase activity in human PA-1 cells assessed as reduction in H3K27me3 level measured after 4 days by Western blot analysis; format: cell-based
[12] = test system: MCF-10A; test: Antiproliferative activity against human MCF-10A cells assessed as cell growth inhibition measured after 72 hrs by MTT assay; format: functional, cell-based
[13] = biological target: T1, Histone-lysine N-methyltransferase EZH2; test: Inhibition of EZH2 (unknown origin) using SAM as substrate preincubated for 10 mins followed by substrate addition and measured after 4 hrs by HTRF assay
[14] = Antiproliferative activity against human DLBCL cells assessed as reduction in cell viability measured after 72 hrs by MTT assay; format: functional, cell-based
[15] = biological target: T1, Histone-lysine N-methyltransferase EZH2
Description: Inhibition of human EZH2 using core histone as substrate incubated for 1 hr by fluorescence based assay

[16] = biological target: T1, Histone-lysine N-methyltransferase EZH2; remark: listed apart in the source
Description: Inhibition of human EZH2 in human MCF-10A cells assessed as reduction in H3K27me3 levels incubated for 72 hrs by Western blot analysis

[17] = biological target: T1, Histone-lysine N-methyltransferase EZH2; test: Inhibition of wildtype EZH2 (unknown origin)
[18] = test system: A549; test: Antiproliferative activity against human A549 cells assessed as reduction in cell viability measured after 48 hrs by MTT assay; format: functional, cell-based; conditions: A549, 48 h

Compound: CCN(c1cc(-c2ccc(OCCCCCNC(=O)C[C@@H]3N=C(c4ccc(Cl)cc4)c4c(sc(C)c4C)-n4c(C)nnc43)cc2)cc(C(=O)NCc2c(C)cc(C)[nH]c2=O)c1C)C1CCOCC1
IC50 [4]: 690 nM

Compound: CCCc1cc(C)[nH]c(=O)c1CNC(=O)c1cc(-c2ccc(N3CCN(C)CC3)nc2)nc2c1cnn2C(C)C
IC50 [9]: 80 nM

Compound: CCN(c1cc(-c2ccc(CN3CCN(C(=O)CCCCCCCC(=O)N[C@H](C(=O)N4C[C@H](O)C[C@H]4C(=O)NCc4ccc(-c5scnc5C)cc4)C(C)(C)C)CC3)cc2)cc(C(=O)NCc2c(C)cc(C)[nH]c2=O)c1C)C1CCOCC1
IC50 [10]: 8600 nM

Compound: CCN(c1cc(-c2ccc(CN3CCN(CCCCCCCOc4cccc5c4C(=O)N(C4CCC(=O)NC4=O)C5=O)CC3)cc2)cc(C(=O)NCc2c(C)cc(C)[nH]c2=O)c1C)C1CCOCC1 (configuration not stated)
IC50 [11]: < 5 nM

Compound: COc1cc2nc(N3CCN(C)CC3)nc(NC3CCN(Cc4ccccc4)CC3)c2cc1OC
IC50 [12]: > 15000 nM

Compound: Cc1cc(C)c(CNC(=O)c2cc(-c3ccc(N4CCN(CCNC(=O)C56CC7CC(CC(C7)C5)C6)CC4)nc3)cc3c2cnn3C(C)C)c(=O)[nH]1
IC50 [13]: 120 nM

Compound: CCCc1cc(C)[nH]c(=O)c1CNC(=O)c1cc(-c2ccc(N3CCN(C(C)C)CC3)nc2)cc2c1cnn2C(C)C
EC50 [14]: 633 nM
IC50 [15]: < 10 nM
IC50 [16]: < 10 nM

Continued, in another order:

GI50 [2]: 210 nM
Compound: CCN1CCN(c2ccc(-c3cc(C(=O)NCc4c(C)cc(C)[nH]c4=O)c(C)c4c3O[C@](C)(CN3CCOCC3)O4)cn2)CC1
IC50 [1]: 0.55 nM
inhibition in vivo at 100 mg/kg [3]: 82%

GI50 [2]: 4.8 nM
GI50 [5]: 4.8 nM
GI50 [6]: 78.3 nM
Compound: Cc1cc(C)c(CNC(=O)c2cc(Cl)c3c(c2C)O[C@@](C)([C@H]2CC[C@H](N(C)C)CC2)O3)c(=O)[nH]1 [VALEMETOSTAT]
IC50 [1]: 24 nM

GI50 [2]: 4 nM
Compound: Cc1cc(C)c(CNC(=O)c2cc(Br)c3c(c2C)O[C@@](C)([C@H]2CC[C@H](N(C)C)CC2)O3)c(=O)[nH]1
IC50 [1]: 0.62 nM
GI50 [7]: 17.7 nM
GI50 [8]: 536 nM

IC50 [17]: 6.4 nM
Compound: CCN(c1cc(C(=O)NCc2c(C)cc(C)[nH]c2=O)c2cc(CN3CCCCC3)oc2c1)C1CCOCC1

IC50 [18]: 270000 nM
Compound: Cc1cc(C)c(CNC(=O)c2c(C)cn(Cc3ccc(C(F)(F)F)cc3)c2C)c(=O)[nH]1
